Entries after “also recorded” stand apart in the source; their conditions may differ. Positions of bridges follow the written chain, without caps; N, C: chain ends. Non-standard residues stand in square brackets, D forms with d. Residues, ends and D or L forms follow the SMILES beside them. Triazole bridges read from a SMILES are 1,4-linked. Lys(N3) = [N-]=[N+]=NCCCC[C@H](N)C(=O)O; Pra = C#CC[C@H](N)C(=O)O
What was measured:
[1] = Peptide aggregation by Thioflavin T fluorescence in LUVs; assay type: physicochemical; conditions: LUVs PE/PC/PI/ergosterol 0.1 mM, Tris-HCl/NaCl pH 7.4, 25 °C, titrated 5-50 μM peptide
Procedure: The aggregation in the liposomes mimicking fungal membranes (5:4:1:2, w/w/w/w) was evaluated using Thioflavin T (ThT) as a dye probe. The lipid film was prepared by dissolving lipids in chloroform to have a final lipid concentration of 0.1 mM. Then, the solvent was removed under a nitrogen gas stream, and the film was freeze-dried overnight. Lipid films were hydrated with 100 mM NaCl, 10 mM Tris-HCl and a […] ThT buffer at a pH of 7.4 and then treated as described above to obtain LUVs. The LUVs were titrated with a peptide concentration of 5, 10, 15, 20, 30 and 50 μM, and ThT fluorescence was recorded before and after the addition of the peptide using the Varian Cary Eclipse fluorescence spectrometer at 25 °C. The samples were excited at 450 nm (slit width: 10 nm), and the fluorescence emission was recorded at 482 nm (slit width: 5 nm). Aggregation was quantified according to the equation %A = (Ff − F0)/(Fmax − F0) × 100, where Ff indicates the value of fluorescence after the peptide addition, F0 is the initial fluorescence before the addition of the peptide and Fmax is the fluorescence maximum obtained immediately after the peptide addition.

[2] = Peptide aggregation imaged by AFM on mica; assay type: physicochemical
From the text: XE-100 Atomic Force Microscopy (AFM) (by Park Systems, Suwon, Korea) was used for the imaging of the most promising peptide (3) with and without liposome interaction. Surface imaging was obtained in non-contact mode using SSS-NCHR 10 M (by Park Systems) Si/Al-coated cantilever with a sharp tip (typical tip radius: 2 nm, <5 nm max), a resonance frequency between 200 and 400 kHz and a nominal force constant of 42 N/m. […] The AFM images were processed and analyzed by the home software (XEI by Park Systems). The images were flattened to remove the background slope and adjusted in terms of contrast and brightness. For the sample preparation for AFM, the AFM imaging was performed on a substrate of a Muscovite mica surface (of about 1 cm^2 in area) that owned a root mean square (rms) surface roughness of less than 0.5 nm on a 1000 × 1000 nm^2 area. The 3-µL aliquots of the sample solutions were casted on mica immediately after cleavage with adhesive tape to establish their cleanliness and charge activity. In fact, after the cleavage, the K^+ ions bonding the mica layers were highly mobile, resulting in a positive overcharging of the mica surface, which enabled the deposition of molecules that held a […]. After 2 min, every sample was gently washed with deionized water to remove the sample excesses and then dried at room temperature under a ventilated fume hood.

[3] = system: C. parapsilosis preformed biofilm; experiment: Eradication of preformed biofilm (XTT); assay type: cell-based; conditions: peptide 6.25 μM, 24-h old biofilm, 24 h treatment
Procedure: (§1) C. albicans ATCC 90028, C. auris DSM 21092, C. glabrata DSM 11226, C. tropicalis DSM11951 and C. parapsilosis DSM 4874 grown on YPD Agar (1% w/v yeast extract, 2% w/v peptone, 2% w/v glucose, 1.5% Agar) were cultured in Tryptone soya broth supplemented with 0.1% glucose for 16–18 h at 37 °C, washed twice using sterile phosphate-buffered saline (PBS) and standardized to […] as required for the experiments. RPMI1640 medium (Thermo Fisher Scientific, Waltham, MA, USA) buffered to a pH of 7.0 with 0.165 M MOPS was used for growing the biofilms of all Candida species.
(§2) Biofilm inhibition and eradication assays were performed as previously described in [37]. […] After the incubation period, non-adherent cells were detached by washing each sample three times in sterile PBS. […] The total biomass was quantified by a crystal violet assay for the inhibition. The vital biomass was quantified by XTT for test eradication by using the tetrazolium 2,3-bis (2-methoxy-4-nitro-5 sulfophenyl)-5-[(phenylamine) carbonyl]-2H-hydroxide reduction assay (XTT) (Sigma-Aldrich, St. Luis, MO, USA) according to the manufacturer’s instructions. The absorbance was measured spectrophotometrically at 492 nm. The percentages of inhibition or eradication were calculated as follows: % biofilm reduction = Abs control − Abs sample/Abs control × 100.

[4] = system: C. albicans preformed biofilm; experiment: Eradication of preformed biofilm (XTT); assay type: cell-based; conditions: peptide 6.25 μM, 24-h old biofilm, 24 h treatment
Procedure: as §1, §2

[5] = system: C. albicans ATCC 90028 biofilms; experiment: Eradication of preformed biofilm, bright-field microscopy; assay type: cell-based; conditions: peptide 12.5 μM
Procedure: Biofilm inhibition and eradication assays were performed as previously described in [37]. […] After the incubation period, non-adherent cells were detached by washing each sample three times in sterile PBS. Then, the samples were fixed, and the biofilms were stained with a 0.1% solution of crystal violet. To test the effect against the established biofilm, fresh growth medium containing peptides at the same concentrations was added in the preformed 24-h old biofilms and incubated for another 24 h. The total biomass was quantified by a crystal violet assay for the inhibition. The vital biomass was quantified by XTT for test eradication by using the tetrazolium 2,3-bis (2-methoxy-4-nitro-5 sulfophenyl)-5-[(phenylamine) carbonyl]-2H-hydroxide reduction assay (XTT) (Sigma-Aldrich, St. Luis, MO, USA) according to the manufacturer’s instructions. The absorbance was measured spectrophotometrically at 492 nm. The percentages of inhibition or eradication were calculated as follows: % biofilm reduction = Abs control − Abs sample/Abs control × 100.
Optical microscopy images were acquired by using a Leica AF6000LX-DM6M-Z microscope (Leica Microsystems, Mannheim, Germany) controlled by LAS-X (Leica Application Suite; rel. 3.0.13) software and equipped with a Leica Camera DFC7000T. Images were acquired by focusing on the Petri dish surface with a 50× objective in a bright field. […]

G. mellonella larvae = conditions: in vivo
Procedure: Twenty larvae with an average weight of 180–200 mg were used in each group in all assays with 2 control groups; one group was inoculated with PBS, while the other group received no injection as a control to evaluate general viability. A volume of 10 µL of each peptide at different concentrations (12.5, 25.0, and 50.0 µM) was inoculated in each group. All larvae were incubated at 37 °C and monitored daily for survival for 4 days in 3 independent experiments.

[6] = Circular dichroism in liposomes mimicking fungal membranes; assay type: physicochemical; conditions: SUVs PE/PC/PI/ergosterol
Procedure: The circular dichroism spectra of the selected peptides (3, 7, 15 and 16) were recorded in small unilamellar vesicles (SUVs) composed of PE/PC/PI/Ergosterol (5:4:1:2, w/w/w/w, final lipid concentration = 0.01 mM) and DOPC/Chol (70:30, ratio in moles, final lipid concentration = 0.1 mM), between 190 and 260 nm on a JASCO J-710 CD spectropolarimeter at 25 °C using quartz cells with a 0.1-cm path length. The SUVs were prepared as reported in the following protocol. Once the lipid films were prepared as described above, they were hydrated with a phosphate buffer (5 mM, pH 7.4) (DOPC:Chol) or water (PE/PC/PI/Ergosterol) for 1 h and sonicated for 40 min. […] We accumulated the data three times, and all spectral data were subtracted from the background. Each spectrum converted the signal to the mean molar ellipticity, and we calculated the ratio of the ellipticities at 222 and 208 nm to discriminate between the monomeric and oligomeric states of the helices. The helix content was calculated as follows: [θ]222/(−40,000[1 − 2.5/n)], where [θ]222 is the ellipticity measurement at 222 nm and n is the number of amino acid residues.

[7] = absence of liposomes, peptide 50 μM

## CC(C)C[C@H](NC(=O)[C@@H]1CCCCn2cc(nn2)C[C@H](NC(=O)[C@H](CCCCN)NC(=O)[C@H](CO)NC(=O)[C@H](Cc2ccccc2)NC(=O)[C@H](Cc2c[nH]c3ccccc23)NC(=O)[C@@H]2CCCN2C(=O)[C@@H](NC(=O)[C@@H](N)Cc2ccccc2)C(C)C)C(=O)N[C@H](CC(C)C)C(=O)NCC(=O)N[C@@H](CCCNC(=N)N)C(=O)N1)C(N)=O [compound 7] (H-FVPWFSK[Pra][dL]GR[Lys(N3)]L-NH2; triazole 8-12; N-terminus assumed)
[1]
  concentration of complete aggregation (ThT fluorescence): 30 µM

## CC[C@H](C)[C@H](NC(=O)[C@H](CCCNC(=N)N)NC(=O)[C@@H]1CCC(=O)NCCCC[C@H](NC(=O)[C@H](Cc2ccccc2)NC(=O)[C@H](Cc2c[nH]c3ccccc23)NC(=O)[C@@H]2CCCN2C(=O)[C@@H](NC(=O)[C@@H](N)Cc2ccccc2)C(C)C)C(=O)N[C@@H](CCCCN)C(=O)N[C@@H](Cc2ccccc2)C(=O)N[C@H](CC(C)C)C(=O)N1)C(=O)N[C@@H](CC(C)C)C(N)=O [compound 3] (H-FVPWFKKF[dL]ERIL-NH2; lactam 6-10; N-terminus assumed)
[2]; [7]
  height of aggregates (clusters) on mica by AFM: ≤ 20 nm
  width of aggregates (clusters) on mica by AFM: up to 300 nm
[2]; after interaction with liposomes mimicking fungal membranes
  thickness of peptide layer on mica by AFM, presence of liposomes: 4 nm
[3]
  eradication of preformed biofilm, C. parapsilosis: 50%
[4]
  eradication of preformed biofilm, C. albicans: 50%
[5]
  eradication effect on preformed C. albicans biofilms by optical microscopy: effective in the eradication of biofilm

## CC[C@H](C)[C@H](NC(=O)[C@H](CCCNC(=N)N)NC(=O)[C@@H]1CCCCNC(=O)CC[C@H](NC(=O)[C@H](Cc2ccccc2)NC(=O)[C@H](Cc2c[nH]c3ccccc23)NC(=O)[C@@H]2CCCN2C(=O)[C@@H](NC(=O)[C@@H](N)Cc2ccccc2)C(C)C)C(=O)N[C@@H](CCCCN)C(=O)N[C@@H](Cc2ccccc2)C(=O)N[C@H](CC(C)C)C(=O)N1)C(=O)N[C@@H](CC(C)C)C(N)=O [compound 15] (H-FVPWFEKF[dL]KRIL-NH2; lactam 6-10; N-terminus assumed)
G. mellonella larvae
  toxicity in G. mellonella larvae at 50 μM: greater toxicity

## CC[C@H](C)[C@H](NC(=O)[C@H](CCCNC(=N)N)NC(=O)[C@@H]1CSSC[C@H](NC(=O)[C@H](Cc2ccccc2)NC(=O)[C@H](Cc2c[nH]c3ccccc23)NC(=O)[C@@H]2CCCN2C(=O)[C@@H](NC(=O)[C@@H](N)Cc2ccccc2)C(C)C)C(=O)N[C@@H](CCCCN)C(=O)N[C@@H](Cc2ccccc2)C(=O)N[C@H](CC(C)C)C(=O)N1)C(=O)N[C@@H](CC(C)C)C(N)=O [compound 16] (H-FVPWFCKF[dL]CRIL-NH2; disulfide 6-10; N-terminus assumed)
[6]; peptide 10 μM
  conformation by CD in fungal membrane-like SUVs, 10 μM: random coil conformation; also recorded: random coil structure
[6]; peptide 50 μM
  conformation by CD in fungal membrane-like SUVs, 50 μM: α-helical molecular aggregates

— article PMC8877061, “Antifungal and Antibiofilm Activity of Cyclic Temporin L Peptide Analogues against Albicans and Non-Albicans Candida Species” (Pharmaceutics, 2022)
